According to article PMC3944389, “Differential Neuroprotective Effects of 5′-Deoxy-5′-Methylthioadenosine” (PLoS ONE, 2014):

Key:
[1] = system: Wistar rats, transient MCAO model of focal brain ischemia; assay: Transient focal ischemia (MCAO), infarct volume by TTC staining; assay type: in vivo, rat; settings: 30 mg/kg i.p. twice daily from 30 min after onset of ischemia, 3 days reperfusion; compared with vehicle
Description: (§1) Male Wistar rats (270-300 g; Harlan) were subjected to transient focal ischemia for 90 min by producing right middle cerebral artery occlusion (MCAO) as described previously, followed by reperfusion for 3 days and MTA treatment (30 mg/kg, intraperitoneally –i.p.- twice daily) starting 30 min after the onset of ischemia (n = 5 in each experimental group). Cerebral blood flow was monitored transcranially with a laser Doppler flowmeter (Perimed) and the infarct volume was assessed by 2,3,5-triphenyltetrazolium chloride (TTC) staining. Transient forebrain ischemia was induced as described elsewhere, by occluding the vertebral and common carotid arteries (4VO) for 10 min, followed by reperfusion for 7 days and MTA treatment (as above) starting 30 min after the onset of ischemia (n = 5 in vehicle group; n = 6 in the […]). The effectiveness of the treatment was assessed by using fluoro-Jade C staining to measure the levels of degenerated neurons in the CA1 region of the hippocampal formation.

[2] = system: primary rat oligodendrocyte (OL) cultures; assay: AMPA excitotoxicity in primary oligodendrocytes, calcein-AM viability; assay type: cell-based; settings: MTA 100 and 300 µM pre-incubated 15 min, viability 24 h after AMPA
Description: Primary rat oligodendrocyte (OL) cultures were derived from the optic nerve of 12-day-old Sprague-Dawley rats, as described previously. Cells were seeded onto 12 mm diameter coverslips coated with poly-D-lysine (10 µg/ml) in 24-well plates at a density of 5×10^3 cells per well. The cells were maintained at 37°C in 5% CO2 and in a chemically defined medium. After 2–4 days in vitro, the cultures were composed of at least 98% O4/galactocerebroside-positive (O4/GalC) cells, while the majority of the remaining cells were stained with antibodies against glial fibrillary acidic protein (GFAP). No A2B5^+ or microglial cells were detected in these cultures.
For a-amino-3-hydroxy-5-methyl-4-isoxazolepropionic acid (AMPA) assays in primary rat OLs, cells were pre-incubated with MTA (100 µM and 300 µM) for 15 min and then exposed to AMPA (10 µM) for an additional period of 15 min. Cell viability was assessed with calcein-AM (Invitrogen) 24 h after application of AMPA, and the number of survival cells on each coverslip was detected by their fluorescence (515 nm filter) and quantified.

[3] = system: rat pure primary neuronal cultures; assay: NMDA-induced caspase 3 activation in pure primary neuronal cultures; assay type: cell-based; settings: 300 µM NMDA
Description: Primary cultures of rat brain cortical neurons were prepared essentially as described previously. The fronto-lateral cortical lobes were dissected out of Sprague-Dawley embryonic day 17 fetuses and they were dissociated mechanically in Hanks' balanced solution. After centrifugation at 800×g for 5 min, the cells were resuspended in serum-free Neurobasal medium (GIBCO) supplemented with B27 (GIBCO) containing 2 mM L-glutamine, penicillin (20 units/ml) and streptomycin (5 µg/ml), and they were plated onto poly-L-lysine-coated 24-well culture plates or on poly-L-lysine-coated 6-well culture plates. […]
(§2) To assay N-methyl–D-aspartate (NMDA) excitotoxicity, primary cultures were seeded in 24-well plates at 15×10^4 cells/well, cultured for 7 days in vitro, and treated for different times with the vehicle alone (dimethyl sulfoxide (DMSO) 1%), NMDA (300 µM), NMDA (300 µM) + MTA (250 µM) or NMDA (300 µM) + MK-801, a NMDA receptor antagonist (10 µM). […] Caspase 3 activity was measured in these lysates one hour after the NMDA addition.
(§3) Cortical neurons, or mixed cortical neurons and glia, were seeded in poly-L-lysine-coated 6-well culture plates during 7 days in vitro before start the set of experiments. […] The extracts were then centrifuged at 5,000×g for 10 min at 4°C and the protein content was determined by the BCA protein assay. […]

[4] = system: Wistar rats, global brain ischemia; assay: Transient forebrain (global) ischemia (4VO), Fluoro-Jade C staining of CA1; assay type: in vivo, rat; settings: 30 mg/kg i.p. from 30 min after onset of ischemia, 7 days reperfusion; untreated 180±10
Description: as §1
Fluoro-Jade C (Chemicon, Millipore) was used to visualize dying neurons in 10 µm frozen coronal sections pretreated for 15 min with 0.06% KMnO4. […] Cells were counted in the right and left hemispheres of each stained section, examining four sections from each experiment.

[5] = system: rat mixed astrocyte-neuron cultures; assay: NMDA-induced caspase 3 activation in mixed astrocyte-neuron cultures; assay type: cell-based; settings: pre- or co-treatment; MTA 250 µM, MK-801 10 µM; 300 µM NMDA
Description: Finally, to prepare neuron-astrocyte co-cultures, neurons were resuspended in B27 Neurobasal medium plus 10% of foetal bovine serum (FBS) and then seeded onto a monolayer of astrocytes in 24-well plates at a density of 1–2×10^5 cells per well, the astrocytes having been prepared beforehand, as described elsewhere. One day later, the medium was replaced with B27-Neurobasal plus 10% FBS medium, and the cells were maintained at 37°C in 5% CO2. The cultures were used 8–9 days after plating. Neurons and astrocytes were identified with antibodies against microtubule-associated protein-2 and GFAP, respectively.
as §2, §3

Q: How did the “volume of the infarct area” value [1] turn out when 5′-deoxy-5′-methylthioadenosine [MTA] was run?
A: did not show any reduction

Q: And the “protection of OLs against AMPA toxicity (calcein-AM)” value [2]?
A: fully protected

Q: And the “survival of neurons exposed to NMDA (caspase 3 activity)” value ([3]; co-treatment with MTA (100, 250 and 500 µM), 1 h)?
A: not enhanced

Q: And the “caspase 3 activity induced by NMDA” value ([3]; pre-treatment 15 min before NMDA, MTA 100, 250 and 500 µM)?
A: decreased significantly

Q: What about the “Fluoro Jade C stained cells in the hippocampal CA1 region” value [4] of the same substance?
A: 110±20 cells/mm

Q: What about the “caspase 3 activation induced by NMDA” value [5] of the same substance?
A: reverted to basal levels
